From US20230277494A1, “TRANS-CROCETIN COMPOSITIONS AND TREATMENT REGIMENS” (priority 2020, published 2023)

Key:
[1] = Phase 2 clinical study of liposomal trans-crocetin, pharmacokinetics; settings: human, in vivo
From the text: A phase 2 clinical study was initiated to assess the safety and efficacy of liposomal trans-crocetin in patients with acute respiratory distress syndrome due to COVID-19 disease. This was an open label phase II study of treatment with liposomal trans-crocetin in patients who experience severe acute respiratory distress syndrome (ARDS) and were receiving artificial respiratory support due to COVID-19. The purpose of this study was to evaluate the improvement in PaO2/FiO2 by more than 25% in two cohorts of patients treated liposomal trans-crocetin. In the first cohort, patients received trans-crocetin at a dose of 0.25 mg/kg administered as intravenous (IV) bolus every 3 hours. The second cohort was treated by a liposomal formulation containing trans-crocetin. […] Pharmacokinetic assessment was carried out to identify an optimal dose and schedule. […] Secondary outcome measures included (1) proportion of patients with a PaO2/FiO2 ratio above 200 mm Hg (Time Frame: 24, 48 and 72 hours), and (2) all cause mortality (Time Frame: 28 days).
The primary purpose of this study was to determine a safe dosing regimen of liposomal trans-crocetin and to assess preliminary efficacy as measured by improvement in PaO2/FiO2 by more than 25% in patients treated with liposome encapsulated trans-crocetin, as well as safety and the pharmacokinetic profile of liposome encapsulated trans-crocetin. […]

[2] = diffusion of oxygen in plasma, FIG. 12; cited from earlier work
[3] = mouse, in vivo, iv
[4] = human, in vivo; cited from earlier work

## CC(/C=C/C=C(\C)C(=O)O)=C\C=C\C=C(C)\C=C\C=C(/C)C(=O)O [trans-crocetin]
[1]
  AUC and Cmax across a wide range of body weights: stable levels
[2]
  improvement in diffusion capacity: 30%

## CC(/C=C/C=C(\C)C(=O)[O-])=C\C=C\C=C(C)\C=C\C=C(/C)C(=O)[O-].[Na+].[Na+] [STC free drug, sodium trans-crocetinate]
[3]
  Cmax: 0.36 mg/mL
[4]
  safety in clinical trials: no safety concerns
